The species named for assay [1] is Homo sapiens. As to the kind of experiment: Binding affinity to DNA sequence ICB1 assessed as protection of ICB1 from DNAase I cleavage at 100 uM.
The species entered for assay [2] is Homo sapiens. The assay is described as follows: Binding affinity to DNA sequence ICB2 by SPR.
In assay [3] the test system is NIH3T3. The assay is described as follows: Increased topoisomerase 2 alpha protein expression in NIH3T3 cells at 10 uM after 4 hrs. The format is functional, cell-based. Conditions: Mus musculus.
Assay [4] concerns NIH3T3. The assay is described as follows: Inhibition of NF-Y binding to DNA sequence ICB1 in NIH3T3 cell extracts at 50uM by EMSA. Conditions: Homo sapiens. The format is cell-free. (In EMSA bound probe runs differently from free probe, usually more slowly.)
Assay [5] is filed under the species Homo sapiens. The assay is described as follows: Binding affinity to DNA sequence ICB4 assessed as protection of ICB4 from DNAase I cleavage at 100 uM.
Assay [6] concerns NIH3T3. As to the kind of experiment: Inhibition of NF-Y binding to DNA sequence ICB2 in NIH3T3 cell extracts at 50 uM by EMSA. The format is cell-free. Conditions: Homo sapiens.
For assay [7], the system named is NIH3T3. As to the kind of experiment: Inhibition of NF-Y binding to DNA sequence ICB2 in NIH3T3 cell extracts at 1 to 5 uM by EMSA. The format is cell-free. Conditions: Homo sapiens.
In assay [8] the test system is NIH3T3. As to the kind of experiment: Induction of topoisomerase 2 alpha protein expression in NIH3T3 cells after 24 hrs. The class given is functional, cell-based. To be noted: Mus musculus.

SMILES strings stand for the structures. Active and inactive are the calls of the source. The rule behind the calls is not given here.

Regarding `CN(C)CCNC(=O)c1cc(NC(=O)c2nc(NC(=O)c3cc(NC=O)cn3C)cn2C)cn1C`, the result in the assay filed under Homo sapiens [1], in the assay with NIH3T3 [4] and in the assay listed under Homo sapiens [5] was inactive. The same molecule returned an Activity in the assay listed under Homo sapiens [2] of 200000 M⁻¹. The result in the assay on NIH3T3 [3] and in the assay on NIH3T3 [6] was Active.

With `CN(C)CCNC(=O)c1cc(NC(=O)c2cc(NC(=O)c3cc(NC(=O)CCCNC(=O)c4nc(NC(=O)c5nc(NC(=O)c6cccn6C)cn5C)cn4C)cn3C)cn2C)cn1C`, the outcome with NIH3T3 [7] and with NIH3T3 [8] was Active.

These data come from ChEMBL document CHEMBL1146168, “Binding of f-PIP, a pyrrole- and imidazole-containing triamide, to the inverted CCAAT box-2 of the topoisomerase IIalpha promoter and modulation of gene expression in cells” (Bioorg Med Chem Lett, 2006).
